The target in one assay is T1, CD20 (Homo sapiens, UniProt P11836).
T1 construct: CD20 positive Daudi lymphoma cells; endogenous in cells; host or cells: Daudi lymphoma cells
T1 sequence (P11836 1-297): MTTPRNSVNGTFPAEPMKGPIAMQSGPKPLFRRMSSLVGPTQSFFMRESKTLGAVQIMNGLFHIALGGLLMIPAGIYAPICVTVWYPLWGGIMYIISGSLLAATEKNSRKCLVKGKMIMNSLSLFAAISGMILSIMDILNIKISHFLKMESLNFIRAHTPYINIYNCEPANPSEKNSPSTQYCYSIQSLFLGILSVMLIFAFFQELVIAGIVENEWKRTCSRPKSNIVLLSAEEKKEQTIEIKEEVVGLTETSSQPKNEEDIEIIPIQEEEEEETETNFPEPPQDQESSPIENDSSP
The assay can be described thus: Flow cytometry: blocking of fluorescent anti-CD20 labeling of Daudi cells. The class given is cell-based. The following applies: CD20 positive Daudi lymphoma cells pretreated prior to CD20 labeling. An excerpt: FIGS. 1A-1F depicts the results of an experiment in which CD20 positive Daudi lymphoma cells were labeled with fluorescent tagged anti-human CD20 or isotype matched control in panels F and A, respectively, and analyzed by flow cytometry. In the other panels, the Daudi cells were pretreated with ABRAXANE® (ABX; FIG. 1B), ABX/rituximab nanoparticles (AR160; FIG. 1C), lyophilized and resuspended AR160 (AR160L; FIG. 1D), or Rituxan (FIG. 1E) prior to CD20 labeling.
CD20 positive Daudi lymphoma cells were labeled with fluorescent tagged anti-human CD20 or isotype matched control in panel F and A, respectively, and analyzed by flow cytometry. In the other panels, the Daudi cells were pretreated with ABX, AR160, AR160L (AR160 lyophilized and resuspended into a solution suitable for injection), or Rituxan prior to CD20 labeling.
For orientation: A flow cytometer gives signals particle by particle.

Assay [1] has as its system PD-L1 positive C8161 melanoma tumor cells. The assay can be described thus: In vivo efficacy in athymic nude mice bearing C8161 melanoma tumors. The following applies: single IV tail vein dose; atezolizumab 18 mg/kg, ABX 45 mg/kg, AA130 18 mg/kg atezolizumab and 45 mg/kg ABX. The procedure: FIGS. 11A-11D show the change in tumor volume over time in mice that were injected with 2×10^6 PD-L1 positive C8161 melanoma tumor cells, then treated by 100 ul IV tail vein injection with saline (FIG. 11A), atezolizumab alone (18 mg/kg; FIG. 11B), ABX alone (45 mg/kg; FIG. 11C) and AA130 (18 mg/kg atezolizumab and 45 mg/kg ABX; FIG. 11D) one time. Tumor growth was monitored 3 times per week. Tumor size was calculated with the equation: (length×width^2)/2.
Kaplan Meier curves were generated using Graph Pad software. The median survival for each group was 14, 13, 16, and 21.5 days for saline, atezolizumab, Abraxane and AA130, respectively. Survival differences between AA130 and all other groups were significant, with p-values of 0.0008 for saline, 0.0015 for atezolizumab, and 0.0113 for ABX.
Athymic nude mice (Harlan Sprague Dawley) were injected with 2×10^6 PD-L1 positive C8161 melanoma tumor cells. The tumors were allowed to grow until about 600 mm^3 and were treated by 100 μl IV tail vein injection with saline, atezolizumab alone (18 mg/kg), ABX alone (45 mg/kg) and AA130 (18 mg/kg atezolizumab and 45 mg/kg ABX) one time (FIGS. 11A-11D). Tumor growth was monitored 3 times/week. Tumor size was calculated with the equation: (length×width^2)/2.
Kaplan Meier curves were generated using Graph Pad software. […]

The target in the next assay is ABX. The assay can be described thus: Biolayer interferometry (BLItz) of biotinylated atezolizumab on streptavidin probes exposed to ABX. The following applies: ABX at 100, 500, 1000 μg/mL in 1×PBS; read-out: Kd (binding affinity between atezolizumab and ABX). The procedure: Biolayer interferometry (BLItz) (Forte Bioscience) was performed using streptavidin probes.
To determine whether atezolizumab and ABX are capable of interacting to form nanoparticle complexes, Biolayer interferometry (BLItz) (Forte Bioscience) was performed using streptavidin probes. 100 ug/ml of biotinylated atezolizumab in 1×PBS was bound to the streptavidin probe. After washing unbound atezolizumab from the probe, the antibody-bound probe was exposed to ABX at concentrations of 100, 500, 1000 μg/mL in 1×PBS. An antibody probe exposed to PBS was used as background and background was subtracted. BLItz software was used to calculate dissociation constants (FIG. 7).
(Biolayer interferometry detects binding as a change in optical thickness at a sensor tip.)

pKd: −log10 of the molar value.

The text below walks through data of patent publication US11548946B2, “Carrier-PD-L1 binding agent compositions for treating cancers” (Mayo Foundation for Medical Education and Research, priority 2016, dated 2023).

With “Rituxan: rituximab, anti-CD20 antibody used as free antibody control”, in the assay with CD20, the “CD20 binding of fluorescent anti-CD20 antibody after pretreatment” value was “specifically blocked”.

On to “atezolizumab: anti-PD-L1 mAb, humanized monoclonal antibody”, for which, in assay [1], the median survival is reported as 13 days. The pKd at ABX was 8.84.

As usually defined, the pKd is the Kd on a negative log10 scale, so that one unit is a factor of ten.
